Results published in patent publication US8044103B2, “Cyclic dipeptides and azetidinone compounds and their use in treating CNS injury and neurodegenerative disorders” (Georgetown University, priority 1998, dated 2011).

Columns and labels:
[1] = tested on: mice following controlled cortical impact injury (CCI); test: Morris watermaze, place learning version, after controlled cortical impact injury; format: in vivo, Male C57Bl/6 mice
Method: (§1) Male C57Bl/6 mice (20-25 g) were obtained from Taconic Farms (Germantown, N.Y.) and housed in an area directly adjoining surgical and behavioral rooms for at least 1 week prior to any procedures. All mice were maintained at a constant temperature (22±2° C.) and a 12 hr light/dark cycle, with lights on at 6 am and all behavioral testing performed during the light cycle. Food and water were available ad libitumn.
(§2) Surgical anesthesia was induced and maintained with 4% and 2% isoflurane respectively, using a flow rate of 1.0-1.5 l oxygen per minute. Depth of anesthesia was assessed by monitoring respiration rate and palpebral and pedal-withdrawal reflexes. The animal was then placed onto a heated pad and core body temperature was monitored and maintained at 38+/−0.2° C. The head was mounted in a stereotaxic frame and the surgical site clipped and prepared with a series of three Nolvasan scrubs followed by sterile saline rinses. A 10 mm mid-line incision was made over the skull, the skin and fascia reflected, and a 4 mm craniotomy made on the central aspect of the left parietal bone with a tissue punch (Roboz, USA). Great care was taken with the removal of the parietal bone to avoid injury to the underlying dura mater which was continuously bathed in sterile normal saline warmed to 37.5° C. The impounder tip of the pneumatic injury device was cleaned with a pad, soaked in absolute alcohol, positioned to the surface of the exposed dura and automatically withdrawn the 44 mm stroke distance. Following injury at a moderate (6.0 m/s velocity, 1 mm tissue deformation depth) level, the incision was closed with interrupted 6-0 silk sutures, anaesthesia was discontinued and the mouse was placed into a heated cage to maintain normothermia for 45 minutes post-injury. All animals were monitored carefully for at least 4 hours post-surgery and then daily. To minimize variation between animals due to anaesthesia during acute neurological testing, 20 minutes was allowed for surgery and 5 minutes for suturing for each animal.
[…] The values for n represents the number of mice in the particular treatment group. The investigator was blinded to drug treatment both at the time of surgery and for neurological and behavioral scoring.
The Morris watermaze (Morris, 1984, J. Neurosci. Meth. 22:47-60) is employed to assess spatial learning by training mice to locate a hidden, submerged platform using extramaze visual information. The apparatus consists of a large, white circular pool (900 mm diameter, 500 mm high, water temperature 24±1° C.) with a plexiglass platform 76 mm diameter painted white and submerged 15 mm below the surface of water (225 mm high) which is rendered opaque with the addition of dilute, white, non-toxic paint. During training, the platform is hidden in one quadrant 14 cm from the side wall. The mouse is gently placed into the water facing the wall at one of four randomly-chosen locations separated by 90 degrees. The latency to find the hidden platform within a 90 second criterion time is recorded by a blinded observer. […]
Continuous variables compared across groups are examined using an analysis of variance (ANOVA) followed by Bonferroni correction (acute reflexes). Continuous variables subjected to repeated measurements over a period of time (beam walking, Morris water maze) are analyzed using a repeated measurements ANOVA followed by Tukey's pairwise comparison at each time point. […]

[2] = tested on: mice following controlled cortical impact injury (CCI); test: Beam walking task after controlled cortical impact injury (chronic neurological recovery); format: in vivo, Male C57Bl/6 mice
Method: as §1
The injury device consisted of a microprocessor-controlled pneumatic impactor with a 3.5 mm diameter tip. The impactor is vertically mounted on a mill table (Sherline, USA) which allows for precise adjustment in the vertical plane above the mouse head, which itself is secured to a stereotaxic apparatus (David Kopf Instruments, CA) attached to the instrument. The core rod of a linear voltage differential transducer (LVDT, Serotec, USA) is attached to the lower end of the impactor to allow measurement of velocities between 3.0 and 9.0 m/s. Velocity of the impactor is controlled by fine tuning both positive and negative (back) air pressures. An oscilloscope (Tektronix, USA) records the time/displacement curve produced by the downward force on the LVDT, allowing precise measurement of the impactor velocity.
as §2
Conscious mice were placed in a mouse restrainer and injected via the lateral tail vein with either normal saline (injured controls; n=6), 1 mg/kg Compound 2a (n=8), Compound 10b (n=6), Compound 11b (n=6) or Compound 14c (n=6) at 30 minutes following controlled cortical impact injury (CCI). The values for n represents the number of mice in the particular treatment group. The investigator was blinded to drug treatment both at the time of surgery and for neurological and behavioral scoring.
Chronic neurological recovery was evaluated for all animals using a beam walking task, a method which is particularly good at discriminating fine motor coordination differences between injured and sham-operated animals. The device consisted of a narrow wooden beam 6 mm wide and 120 mm in length which was suspended 300 mm above a 60 mm-thick foam rubber pad. The mouse was placed on one end of the beam and the number of footfaults for the right hindlimb recorded over 50 steps counted in either direction on the beam. A basal level of competence at this task was established before surgery with an acceptance level of <10 faults per 50 steps. […]

O=C1NC2(CCCCC2)C(=O)N2CCC[C@@H]12 [Compound 2a, Cyclo[(1-Amino-1-Cyclohexane-Carboxylic Acid)-Pro]]
latency to find hidden platform (place learning) versus sham-operated controls, day 8 ([1]; 1.0 mg/kg at 30 min following CCI, day 8, p<0.001): significantly different from sham-operated controls
latency to find hidden platform (place learning) versus sham-operated controls, day 9 ([1]; 1.0 mg/kg at 30 min following CCI, day 9 (third day of training), p>0.05, out-performing saline-treated): no longer significantly different from sham-operated controls
latency to find goal platform (place learning) versus saline-treated injured mice, last day of training ([1]; 1.0 mg/kg at 30 min following CCI, day 10, p<0.01): significantly improved latencies
place-learning compared with saline-treated controls (CCI+saline), dose-response experiments ([1]; 0.1, 1.0 or 10.0 mg/kg at 60 min following CCI, 10 days post-surgery, all treatment groups): improved place-learning
dose giving the most improved learning (place learning watermaze) ([1]; 0.1, 1.0 or 10.0 mg/kg at 60 min following CCI, by 10 days post-surgery): 10 mg/kg
beam walking, time course of recovery of function ([2]; 1 mg/kg i.v. at 30 min following CCI): began to show some recovery of function after 3 days
beam walking performance (right hindlimb footfaults) compared with saline-treated injured animals ([2]; 1 mg/kg i.v. at 30 min following CCI, 14 days following injury, p<0.05): significant improvement in performance
beam walking outcome (right hindlimb footfaults) compared with saline-treated animals ([2]; 1 mg/kg i.v. at 30 min following CCI, 21 days post-injury, p<0.01): continued improvement in outcome
dose with optimal effects in beam walking (inverted U-shaped dose-response curve) ([2]; 0.1, 1.0 or 10.0 mg/kg at 60 minutes following CCI): 1 mg/kg
